From ChEMBL document CHEMBL1133964, “Synthesis and biological data of 4-amino-1-(2-chloro-2-phenylethyl)-1H-pyrazolo[3,4-b]pyridine-5-carboxylic acid ethyl esters, a new series of A1-adenosine receptor (A1AR) ligands” (Bioorg Med Chem Lett, 2001)

Experiments:
Adenosine receptor A1 = biological target: T1, Adenosine receptor A1 (Bos taurus, UniProt P28190); assay: Displacement of [3H]CHA from Adenosine A1 receptor in bovine cortical membrane expressed as Ki; type: cell membranes
T1 sequence (P28190 whole entry): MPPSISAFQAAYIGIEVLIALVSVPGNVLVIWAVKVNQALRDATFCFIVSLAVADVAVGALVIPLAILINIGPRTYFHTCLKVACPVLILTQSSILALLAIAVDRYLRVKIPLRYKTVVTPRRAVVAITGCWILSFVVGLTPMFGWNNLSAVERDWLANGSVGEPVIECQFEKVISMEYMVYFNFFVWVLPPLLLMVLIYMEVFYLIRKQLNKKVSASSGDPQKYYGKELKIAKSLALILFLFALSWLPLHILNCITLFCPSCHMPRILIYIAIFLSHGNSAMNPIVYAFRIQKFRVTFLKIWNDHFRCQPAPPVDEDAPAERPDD

[1] = biological target: T2, Adenosine receptor A1 (Bos taurus) (UniProt P28190); assay: Percent inhibition of [3H]CHA binding at Adenosine A1 receptor in bovine cortical membrane at 10 uM; type: cell membranes
T2 sequence (whole entry): T1 sequence (P28190 whole entry)

[2] = biological target: Adenosine receptor A2a (Bos taurus); assay: Displacement of [3H]CGS-21680 binding at A2A adenosine receptor in bovine striatal membrane
[3] = system: Adenosine receptor A2a (Bos taurus); assay: Percent inhibition of [3H]CGS-21680 binding to A2A adenosine receptor of bovine striatal membrane at 10 uM

CCOC(=O)c1cnc2c(cnn2CC(Cl)c2ccccc2)c1NC(C)(C)C (stereo not drawn)
Ki (Adenosine receptor A1): 4800 nM

CCOC(=O)c1cnc2c(cnn2CC(Cl)c2ccccc2)c1N1CCN(C)CC1 (stereo not drawn)
inhibition [1]: 22%
Ki [2]: 2140 nM

CCOC(=O)c1cnc2c(cnn2CC(Cl)c2ccccc2)c1N1CCOCC1 (stereo not drawn)
Ki (Adenosine receptor A1): 470 nM
inhibition [3]: 0%

CCOC(=O)c1cnc2c(cnn2CC(Cl)c2ccccc2)c1Nc1ccccc1 (stereo not drawn)
Ki (Adenosine receptor A1): 348 nM
inhibition [3]: 11%

CCOC(=O)c1cnc2c(cnn2CC(Cl)c2ccccc2)c1N1CCCCCC1 (stereo not drawn)
inhibition [1]: 35%
inhibition [3]: 22%

CCCCNc1c(C(=O)OCC)cnc2c1cnn2CC(Cl)c1ccccc1 (stereo not drawn)
Ki (Adenosine receptor A1): 4100 nM
inhibition [3]: 3%

CCOC(=O)c1cnc2c(cnn2CC(Cl)c2ccccc2)c1N1CCNCC1 (stereo not drawn)
inhibition [1]: 0%
inhibition [3]: 6%

CCOC(=O)c1cnc2c(cnn2CC(Cl)c2ccccc2)c1NC1CC1 (stereo not drawn)
Ki (Adenosine receptor A1): 112 nM
inhibition [3]: 10%

CCCNc1c(C(=O)OCC)cnc2c1cnn2CC(Cl)c1ccccc1 (stereo not drawn)
Ki (Adenosine receptor A1): 100 nM

CCOC(=O)c1cnc2c(cnn2CC(Cl)c2ccccc2)c1N1CCCC1 (stereo not drawn)
Ki (Adenosine receptor A1): 98.2 nM

CCOC(=O)c1cnc2c(cnn2CC(Cl)c2ccccc2)c1NCCc1ccccc1 (stereo not drawn)
Ki (Adenosine receptor A1): 50 nM

CCOC(=O)c1cnc2c(cnn2CC(Cl)c2ccccc2)c1NCc1ccccc1 (stereo not drawn)
Ki (Adenosine receptor A1): 139 nM
inhibition [3]: 0%

CCOC(=O)c1cnc2c(cnn2CC(Cl)c2ccccc2)c1N1CCCCC1 (stereo not drawn)
inhibition [1]: 41%
inhibition [3]: 23%

CCOCCNc1c(C(=O)OCC)cnc2c1cnn2CC(Cl)c1ccccc1 (stereo not drawn)
Ki (Adenosine receptor A1): 151 nM
